Biological target: GST tagged IRAK-4 (Homo sapiens (Human), UniProt Q9NWZ3)
Assay: IRAK-4 Kinase Assay (IMAP fluorescence polarization)
Format: biochemical
Conditions: 100 μM ATP, 30 minutes at 25° C.
Method: The kinase activity of IRAK-4 is determined by its ability to catalyze the phosphorylation of a fluorescent polypeptide substrate. The extent of phosphorylation is measured using the IMAP technology (Molecular Devices) where the phosphorylated fluorescent substrate binds to the large M(III)-based nanoparticles which reduces the rotational speed of the substrate and thus increases its fluorescent polarization (FP).
20 μl reaction mixture contains 10 mM TriHCl, pH 7.2, 0.5 nM GST tagged IRAK-4 (SignalChem), 100 nM fluorescent peptide substrate (RP7030, Molecular Devices), 100 μM ATP, 1 mM DTT, 1 mM MgCl2, and 0.01% Tween 20. The reaction is initiated by the addition of ATP. After incubation for 30 minutes at 25° C., 60 μl of Progressive IMAP Reagent (Molecular Devices) is added to stop the reaction. Change in RP7030's FP is determined by a FP reader (Analyst HT, LH, BioSystems).

Sequence of GST tagged IRAK-4 (Q9NWZ3 whole entry): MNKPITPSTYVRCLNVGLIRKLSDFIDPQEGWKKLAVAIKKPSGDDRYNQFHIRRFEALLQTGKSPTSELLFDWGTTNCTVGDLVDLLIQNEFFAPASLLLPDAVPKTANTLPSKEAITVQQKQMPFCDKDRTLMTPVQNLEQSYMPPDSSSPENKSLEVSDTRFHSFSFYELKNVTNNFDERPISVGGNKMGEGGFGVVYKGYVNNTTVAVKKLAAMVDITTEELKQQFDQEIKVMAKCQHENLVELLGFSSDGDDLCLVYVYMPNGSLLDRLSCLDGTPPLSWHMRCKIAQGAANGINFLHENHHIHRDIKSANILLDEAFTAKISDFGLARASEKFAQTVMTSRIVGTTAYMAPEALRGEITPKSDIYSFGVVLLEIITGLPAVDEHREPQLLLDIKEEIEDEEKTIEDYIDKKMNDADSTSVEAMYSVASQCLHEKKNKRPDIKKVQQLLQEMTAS

Row | IC50 | IC50 (μM) | SMILES
1 | < 0.1 µM | – | Cc1ccc(-n2nc(C3CCN(C4CC(C#N)C4)CC3)cc2NC(=O)c2cnn3cccnc23)cc1 (centres unmarked) [Example 258, N-{3-[1-(3-cyanocyclobutyl)piperidin-4-yl]-1-(4-methylphenyl)-1H-pyrazol-5-yl}pyrazolo[1,5-a]pyrimidine-3-carboxamide]
2 | – | < 1 µM | Cc1cc(F)ccc1-n1nc(C2CCN(C(C)C)CC2)cc1NC(=O)c1cnn2cccnc12 [Example 69, N-(1-(4-fluoro-2-methylphenyl)-3-(1-isopropylpiperidin-4-yl)-1H-pyrazol-5-yl)pyrazolo[1,5-a]pyrimidine-3-carboxamide]
3 | – | < 1 µM | Cc1ccc(-n2nc(C3(C)CCNCC3)cc2NC(=O)c2cnn3cccnc23)cc1 [Example 91, N-(3-(4-methylpiperidin-4-yl)-1-(p-tolyl)-1H-pyrazol-5-yl)pyrazolo[1,5-a]pyrimidine-3-carboxamide]
4 | < 0.1 µM | – | Cc1ccc(-n2nc(C3CCN(Cc4ccccn4)CC3)cc2NC(=O)c2cnn3cccnc23)cc1 [Example 226, N-{1-(4-methylphenyl)-3-[1-(pyridin-2-ylmethyl)piperidin-4-yl]-1H-pyrazol-5-yl}pyrazolo[1,5-a]pyrimidine-3-carboxamide]
5 | < 0.1 µM | – | O=C(Nc1cc(C2CN(C3CCC3)C2)nn1-c1ccc(C2CC2)cc1F)c1cnn2cccnc12 [Example 89, N-(3-(1-cyclobutylazetidin-3-yl)-1-(4-cyclopropyl-2-fluorophenyl)-1H-pyrazol-5-yl)pyrazolo[1,5-a]pyrimidine-3-carboxamide]
6 | < 0.1 µM | – | Cc1cnc(-n2nc(C3CCN(S(C)(=O)=O)CC3)cc2NC(=O)c2cnn3cccnc23)nc1 [Example 170, N-(1-(5-methylpyrimidin-2-yl)-3-(1-(methylsulfonyl)piperidin-4-yl)-1H-pyrazol-5-yl)pyrazolo[1,5-a]pyrimidine-3-carboxamide]
7 | < 0.1 µM | – | CNS(=O)(=O)c1ccc(-c2cc(NC(=O)c3cnn4cccnc34)n(-c3ccc(C4CC4)cc3F)n2)cc1 [Example 101, N-(1-(4-cyclopropyl-2-fluorophenyl)-3-(4-(N-methylsulfamoyl)phenyl)-1H-pyrazol-5-yl)pyrazolo[1,5-a]pyrimidine-3-carboxamide]
8 | – | < 1 µM | Cc1ccc(-n2nc(-c3ccnn3C)cc2NC(=O)c2cnn3cccnc23)cc1 [Example 331, N-[2′-methyl-1-(4-methylphenyl)-1H,2′H-3,3′-bipyrazol-5-yl]pyrazolo[1,5-a]pyrimidine-3-carboxamide]
9 | < 0.1 µM | – | Cc1ccc(-n2nc(C3CCN(C4CCC(NS(C)(=O)=O)CC4)CC3)cc2NC(=O)c2cnn3cccnc23)cc1 (centres unmarked) [Example 252, N-[1-(4-methylphenyl)-3-(1-{4-[(methylsulfonyl)amino]cyclohexyl}piperidin-4-yl)-1H-pyrazol-5-yl]pyrazolo[1,5-a]pyrimidine-3-carboxamide]
10 | < 0.1 µM | – | COC(=O)N1CCC(c2cc(NC(=O)c3cnn4cc(Br)cnc34)n(-c3ccc(C)cc3)n2)CC1 [Example 118, methyl 4-(5-(6-bromopyrazolo[1,5-a]pyrimidine-3-carboxamido)-1-(p-tolyl)-1H-pyrazol-3-yl)piperidine-1-carboxylate]
11 | – | < 1 µM | O=C(Nc1cc(C2CCN(S(=O)(=O)C3CC3)CC2)nn1-c1ccc(C2CC2)cc1)c1cnn2cccnc12 [Example 54, N-(1-(4-cyclopropylphenyl)-3-(1-(cyclopropylsulfonyl)piperidin-4-yl)-1H-pyrazol-5-yl)pyrazolo[1,5-a]pyrimidine-3-carboxamide]
12 | < 0.1 µM | – | Cc1ccc(-n2nc(C3CCN(Cc4cscn4)CC3)cc2NC(=O)c2cnn3cccnc23)cc1 [Example 231, N-{1-(4-methylphenyl)-3-[1-(1,3-thiazol-4-ylmethyl)piperidin-4-yl]-1H-pyrazol-5-yl}pyrazolo[1,5-a]pyrimidine-3-carboxamide]
13 | – | < 1 µM | Cc1ccc(-n2nc(C3CN(Cc4ccn[nH]4)C3)cc2NC(=O)c2cnn3cccnc23)cc1 [Example 306, N-{1-(4-methylphenyl)-3-[1-(1H-pyrazol-5-ylmethyl)azetidin-3-yl]-1H-pyrazol-5-yl}pyrazolo[1,5-a]pyrimidine-3-carboxamide]
14 | < 0.1 µM | – | Cc1ccc(-n2nc(-c3ccc(S(C)(=O)=O)cc3)cc2NC(=O)c2cnn3cccnc23)nc1 [Example 179, N-(1-(5-methylpyridin-2-yl)-3-(4-(methylsulfonyl)phenyl)-1H-pyrazol-5-yl)pyrazolo[1,5-a]pyrimidine-3-carboxamide]
15 | – | < 1 µM | COc1cc(-c2cc(NC(=O)c3cnn4cccnc34)n(-c3ccc(C)cc3)n2)ccn1 [Example 129, N-(3-(2-methoxypyridin-4-yl)-1-(p-tolyl)-1H-pyrazol-5-yl)pyrazolo[1,5-a]pyrimidine-3-carboxamide]
16 | – | > 1 µM | Cc1ccc(-n2nc(-c3ccc(F)cc3)cc2NC(=O)c2cnn3cccnc23)cc1 [Example 135, N-(3-(4-fluorophenyl)-1-(p-tolyl)-1H-pyrazol-5-yl)pyrazolo[1,5-a]pyrimidine-3-carboxamide]
17 | – | < 1 µM | Cc1ccc(-n2nc(C3CCN(S(=O)(=O)Cc4ccccc4)CC3)cc2NC(=O)c2cnn3cccnc23)cc1 [Example 387, N-{3-[1-(benzylsulfonyl)piperidin-4-yl]-1-(4-methylphenyl)-1H-pyrazol-5-yl}pyrazolo[1,5-a]pyrimidine-3-carboxamide]
18 | – | > 1 µM | Cc1ccc(-n2nc(C3(C)CCN(S(C)(=O)=O)CC3)cc2NC(=O)c2cnn3cccnc23)cc1 [Example 92, N-(3-(4-methyl-1-(methylsulfonyl)piperidin-4-yl)-1-(p-tolyl)-1H-pyrazol-5-yl)pyrazolo[1,5-a]pyrimidine-3-carboxamide]
19 | < 0.1 µM | – | Cc1ccc(-n2nc(N3CCN(C4CCCCC4)CC3)cc2NC(=O)c2cnn3cccnc23)nc1 [Example 319, N-[3-(4-cyclohexylpiperazin-1-yl)-1-(5-methylpyridin-2-yl)-1H-pyrazol-5-yl]pyrazolo[1,5-a]pyrimidine-3-carboxamide]
20 | < 0.1 µM | – | Cc1ccc(-n2nc(C3CCN(S(C)(=O)=O)CC3)cc2NC(=O)c2cnn3cccnc23)c(F)c1 [Example 57, N-(1-(2-fluoro-4-methylphenyl)-3-(1-(methylsulfonyl)piperidin-4-yl)-1H-pyrazol-5-yl)pyrazolo[1,5-a]pyrimidine-3-carboxamide]
21 | < 0.1 µM | – | Cc1ccc(-n2nc(C3CCN(C(C)C)CC3)cc2NC(=O)c2cnn3cccnc23)cc1 [Example 37, N-(3-(1-isopropylpiperidin-4-yl)-1-(p-tolyl)-1H-pyrazol-5-yl)pyrazolo[1,5-a]pyrimidine-3-carboxamide]
22 | – | < 1 µM | Cc1ccc(-n2nc(-c3ccc(=O)n(C)c3)cc2NC(=O)c2cnn3cccnc23)cc1 [Example 337, N-[3-(1-methyl-6-oxo-1,6-dihydropyridin-3-yl)-1-(4-methylphenyl)-1H-pyrazol-5-yl]pyrazolo[1,5-a]pyrimidine-3-carboxamide]
23 | – | < 1 µM | Cc1ccc(-n2nc(C3CCN(Cc4ncco4)CC3)cc2NC(=O)c2cnn3cccnc23)cc1 [Example 232, N-{1-(4-methylphenyl)-3-[1-(1,3-oxazol-2-ylmethyl)piperidin-4-yl]-1H-pyrazol-5-yl}pyrazolo[1,5-a]pyrimidine-3-carboxamide]

— patent US9169260B2 (MERCK SHARP & DOHME CORP., priority 2011, dated 2015)
